# Experimental data published in paper PMC4166900, “Covalent modification of a ten-residue cationic antimicrobial peptide with levofloxacin” (Frontiers in Chemistry, 2014).
# Read-outs that look alike come from different tables or passages of the source. Marks after values point to notes of the source that are not given here. Peptide text beside a SMILES is read from it. * marks the point of attachment. Levofloxacinoyl = C[C@H]1COc2c(N3CCN(C)CC3)c(F)cc3c(=O)c(C(=O)*)cn1c23
# Tests used:
# [1] = test system: B. cereus (#11778)
# Procedure: (§4) Frozen enumerated aliquots of bacteria were thawed and diluted into sterile buffer to a bacterial concentration of 2 × 10^6 CFU/mL. Wells of a 96-well polypropylene microtiter plate (Greiner Bio-One) were charged with 50 μL aliquots of buffer solutions containing serially diluted peptide, conjugate, or drug followed by 50 μL aliquots of diluted bacterial cells. Assays for each compound were prepared in triplicate. Control wells were prepared where the peptide/conjugate/drug solution was replaced with an equal volume of buffer alone. Following addition of bacteria, the microtiter plates were incubated for 3 h at either 37°C (E. coli) or 30°C (B. cereus). […] Plates were then immediately placed in a SpectraMax Gemini EM plate-reading fluorometer for overnight monitoring of fluorescence (530 nmex/590 nmem) at either 37°C (E. coli) or 30°C (B. cereus) with intermittent shaking. Onset time of half maximal fluorescence (T0.5) observed for each well was computed using the microplate data analysis software. In order to determine bacterial survival, it was necessary to establish correlations between bacterial concentration (CFU/mL) and T0.5 values. Therefore, standard curve equations were generated in preliminary experiments using bacterial suspensions serially diluted (~10^6 CFU/mL—10^3 CFU/mL) in each of the three buffers used in the antibacterial assays.
# (§5) (2) log(CFU/mLB.cereus)=−1.00 × 10^−4(T0.5)+Yint
# (§6) (3) Bacterial Survival=Smin+(Smax−Smin)/ (1+10^log(EC50)−log(PC)∗HS)
# (§7) Assays were conducted under three different ionic strength (μ) buffer conditions in order to assess the effect salt concentration had on antibacterial effectiveness. The lowest ionic strength buffer used was 10 mM NaPO4, pH 7.4, which corresponded to 26 mM total ionic strength. […] Bacterial survival results were plotted against the log of the concentration of conjugate, peptide, or free drug. EC50 values for each assessed compound were calculated by fitting the survival data to equation 3, which models typical sigmoidal dose-response behavior using a variable Hill slope. An F test was used to assess statistical significance, with the alpha level set to 0.05.
# [2] = Distribution coefficient (1-octanol / 10 mM NaPO4 pH 7.4); details: for logD at 10 min: pH 7.4
# Procedure: In these experiments, P4LC, Pep-4 or free LVFX dissolved in 100 μL of 10 mM NaPO4 (pH 7.4) buffer was combined with 100 μL of 1-Octanol in a 1.5 mL low binding polypropylene microcentrifuge tube (Corning). Each tube was vortexed for 10 min and the contained solvent allowed to settle. […] The maximal concentrations of Pep-4 and P4LC in the calibration curves were also established using amino acid analysis (UC Davis Genome Center Proteomics Core Facility). […] Indolicidin and melittin were used as reference peptides in these studies. […] The D7.4 values generated for P4LC, Pep-4, LVFX, indolicidin, and melittin were calculated (equation 5) based on their respective concentrations in the aqueous phase ([peptide]PO4buffer) of the water/octanol biphasic system and their concentrations in the initial stock solution ([peptide]total). Values are averaged from six replicates.
# (5) logD7.4=log(([peptide]total−[peptide]PO4buffer)/([peptide]PO4buffer)) =log ([peptide]octanol/[peptide]PO4buffer)
# The concentration ratios of each compound between the two liquid phases were used to establish distribution coefficients (D7.4). Indolicidin and melittin were used as reference peptides in these studies.
# [3] = test system: B. cereus membranes; test: SYTOX green membrane perturbation assay; format: cell-based; details: 10 mM NaPO4 pH 7.4, 33 μM P4LC, 33 μM Pep-4, 126 μM Pep-4/LVFX, 93 μM LVFX, melittin = maximal, biological triplicates
# Procedure: (§1) Enumerated frozen aliquots of E. coli and B. cereus cells were thawed and washed 3x with buffer (10 mM NaPO4, pH 7.4). The washed cells were diluted to a concentration of 4 × 10^7 CFU/mL in 10 mM NaPO4 (pH 7.4) buffer containing 5 μM SYTOX Green, and the resulting suspension then stored in the dark for ~20 min. The bacterial suspension was then distributed in 100 μL aliquots to wells of a black polypropylene microtiter plate (Greiner Bio-One). […] The fluorescence of each well was immediately monitored (without the lid) using a SpectraMax Gemini EM plate-reading fluorometer (485/520 nmem). […] A negative control containing only bacteria and SYTOX Green was used to determine background fluorescence, and maximal perturbation of the bacterial cell membranes was established using melittin. The fluorescence kinetics data sets were normalized by setting emitted fluorescence to 0 at t = 0 s and presenting fluorescence intensity values as a fraction of maximal fluorescence observed for melittin.
# (§2) For membrane depolarization and perturbation experiments, fluorescence data was analyzed by comparing best-fit curves (GraphPad Prism). Fluorescence kinetic curves were fit to a polynomial regression model (equation 4) to allow for statistical comparison of the fluorescence data via an F test, with all four best-fit parameters used as criteria. […]
# [4] = test system: E. coli membranes; test: SYTOX green membrane perturbation assay; format: cell-based; details: 10 mM NaPO4 pH 7.4, 33 μM P4LC, 33 μM Pep-4, 126 μM Pep-4/LVFX, 93 μM LVFX, biological triplicates
# Procedure: as §1, §2
# [5] = test system: B. cereus membranes; test: DiSC(3)5 membrane depolarization assay; format: cell-based; details: B. cereus 2 × 10^7 CFU/mL; 10 mM NaPO4 pH 7.4; 33 μM P4LC and Pep-4, 126 μM Pep-4/LVFX, 93 μM LVFX; melittin 33 μM = maximal; monitored 30 min; triplicate
# Procedure: (§3) Enumerated frozen aliquots of E. coli and B. cereus cells were thawed and washed 3x with buffer (10 mM NaPO4, pH 7.4). The washed cells were diluted in 10 mM NaPO4 buffer containing 10 ug/mL DiSC(3)5 to afford a concentration of 4 × 10^7 CFU/mL. Bacterial suspension was added to the wells of a black polypropylene microtiter plate (Greiner Bio-One) in 100 μL aliquots, and fluorescence was monitored (rt, with lid on) using a SpectraMax Gemini EM plate-reading fluorometer (622 nmex/ 670 nmem) until fluorescence quenching stabilized and maximal DiSC(3)5 uptake was achieved. […] The final concentrations of each assessed compound in the wells were 33 μM (P4LC and Pep-4), 126 μM (Pep-4/LVFX), and 93 μM (LVFX), while final bacterial concentrations were 2 × 10^7 CFU/mL. Assays were performed in triplicate for each compound assessed. […] The fluorescence kinetics data sets were normalized by setting emitted fluorescence to 0 at t = 0 s and presenting fluorescence intensity values as a fraction of maximal fluorescence observed for melittin.
# as §2
# [6] = test system: E. coli membranes; test: DiSC(3)5 membrane depolarization assay; format: cell-based; details: E. coli 2 × 10^7 CFU/mL; 10 mM NaPO4 pH 7.4; 33 μM P4LC and Pep-4, 126 μM Pep-4/LVFX, 93 μM LVFX; melittin 33 μM = maximal; monitored 30 min; triplicate
# Procedure: as §3, §2
# [7] = test system: B. cereus (#11778); test: microbe, parasite or virus in culture; details: Bacillus cereus, 3 h
# Procedure: as §4, §5, §6, §7
# [8] = test system: E. coli (#25922); test: microbe, parasite or virus in culture; details: Escherichia coli, 3 h, pH 7.4, read-out: EC50 (95% confidence interval), E. coli, resazurin read-out, triplicate
# Procedure: as §4
# (§8) (1) log(CFU/mLE.coli)=−2.00 × 10^−4(T0.5)+Yint
# as §6, §7
# [9] = test system: E. coli (#25922); details: for EC50: read-out: EC50 (95% confidence interval), E. coli, resazurin read-out, triplicate
# Procedure: as §4, §8, §6, §7
# [10] = read-out: EC50 (95% confidence interval), B. cereus, ionic strength μ2 = 111 mM (10 mM NaPO4 : cation-adjusted PBS 1:1, pH 7.4), 3 h at 30°C, resazurin read-out, triplicate, * = estimated, lower survival boundary set to 0
# [11] = ionic strength μ1 = 26 mM (10 mM NaPO4, pH 7.4), 3 h incubation at 37°C
# [12] = ionic strength μ2 = 111 mM (10 mM NaPO4 : cation-adjusted PBS 1:1, pH 7.4), 3 h at 37°C
# [13] = ionic strength μ3 = 167 mM (cation-adjusted PBS, pH 7.4), 3 h at 37°C, * = estimated, lower survival boundary set to 0
smiles,measurement,setting,value
"C[C@H]1COc2c(N3CCN(C)CC3)c(F)cc3c(=O)c(C(=O)O)cn1c23 [LVFX, Levofloxacin]",EC50,[1]; [10],591 nM
same,D7.4 fold greater than P4LC,"[2]; 1-octanol / 10 mM NaPO4 pH 7.4, ratio of D7.4 values",about 4.5 fold
same,SYTOX Green fluorescence increase relative to melittin (membrane perturbation),[3],No increase in fluorescence
same,mean maximal SYTOX Green fluorescence relative to melittin (membrane perturbation),[4],No increase in fluorescence
same,mean maximal DiSC(3)5 fluorescence relative to melittin (membrane depolarization),[5],2.5%
same,mean maximal DiSC(3)5 fluorescence relative to melittin (membrane depolarization),[6],8.4%
same,EC50,"[7]; pH 7.4, read-out: EC50 (95% confidence interval)",981 nM
same,EC50,"[7]; pH 7.4, read-out: EC50 (95% confidence interval), B. cereus, ionic strength μ1 = 26 mM (10 mM NaPO4, pH 7.4), 3 h incubation at 30°C, resazurin read-out, triplicate",212 nM
same,EC50,[8]; [11],2.81 nM
same,EC50,[8]; [12],2.23 nM
same,EC50,[8]; [13],2.77 nM
CC[C@H](C)[C@H](N)C(=O)N[C@@H](CC(C)C)C(=O)N1CCC[C@H]1C(=O)N[C@@H](Cc1c[nH]c2ccccc12)C(=O)N[C@@H](CCCCN)C(=O)N[C@@H](Cc1c[nH]c2ccccc12)C(=O)N1CCC[C@H]1C(=O)N[C@@H](Cc1c[nH]c2ccccc12)C(=O)N[C@@H](Cc1c[nH]c2ccccc12)C(=O)N1CCC[C@H]1C(=O)N[C@@H](Cc1c[nH]c2ccccc12)C(=O)N[C@@H](CCCN=C(N)N)C(=O)N[C@@H](CCCN=C(N)N)C(N)=O [indolicidin],logD at 10 min,[2],2.3
N=C(N)NCCC[C@H](NC(=O)CNC(=O)[C@@H](N)CCCNC(=N)N)C(=O)N[C@@H](CCCNC(=N)N)C(=O)N[C@@H](CO)C(=O)N[C@@H](CO)C(=O)N[C@@H](CCCNC(=N)N)C(=O)N[C@@H](CCCNC(=N)N)C(=O)N[C@@H](CCCCN)C(=O)N[C@@H](CCCCN)C(N)=O [Pep-4] (H-RGRRSSRRKK-NH2),EC50,"[1]; #11778, 3 h, pH 7.4",27.1 nM
same,EC50 (95% confidence interval),"[9]; #25922, 3 h, pH 7.4",~29.4 ^* (21.9–35.4)^* μM
same,logD at 10 min,[2],-2.57
C[C@H]1COc2c(N3CCN(C)CC3)c(F)cc3c(=O)c(C(=O)NCCCC[C@H](NC(=O)[C@H](CCCCNC(=O)c4cn5c6c(c(N7CCN(C)CC7)c(F)cc6c4=O)OC[C@@H]5C)NC(=O)[C@H](CCCNC(=N)N)NC(=O)[C@H](CCCNC(=N)N)NC(=O)[C@H](CO)NC(=O)[C@H](CO)NC(=O)[C@H](CCCNC(=N)N)NC(=O)[C@H](CCCNC(=N)N)NC(=O)CNC(=O)[C@H](CCCNC(=N)N)NC(=O)c4cn5c6c(c(N7CCN(C)CC7)c(F)cc6c4=O)OC[C@@H]5C)C(N)=O)cn1c23 [P4LC] (Levofloxacinoyl-RGRRSSRRK(Levofloxacinoyl)K(Levofloxacinoyl)-NH2),EC50,"[1]; read-out: EC50 (95% confidence interval), B. cereus, ionic strength μ1 = 26 mM (10 mM NaPO4, pH 7.4), 3 h incubation at 30°C, resazurin read-out, triplicate",21.8 nM
same,EC50,[1]; [10],2170 nM
same,EC50,"[1]; read-out: EC50 (95% confidence interval), B. cereus, ionic strength μ3 = 167 mM (cation-adjusted PBS, pH 7.4), 3 h at 30°C, resazurin read-out, triplicate, * = estimated, lower survival boundary set to 0",40000 nM
same,EC50,[9]; [11],16.7 nM
same,EC50,[9]; [12],1710 nM
same,EC50,[9]; [13],1510 nM
same,logD at 10 min,[2],-1.65
"CC[C@H](C)[C@H](NC(=O)CN)C(=O)NCC(=O)N[C@@H](C)C(=O)N[C@H](C(=O)N[C@@H](CC(C)C)C(=O)N[C@@H](CCCCN)C(=O)N[C@H](C(=O)N[C@@H](CC(C)C)C(=O)N[C@H](C(=O)N[C@H](C(=O)NCC(=O)N[C@@H](CC(C)C)C(=O)N1CCC[C@H]1C(=O)N[C@@H](C)C(=O)N[C@@H](CC(C)C)C(=O)N[C@H](C(=O)N[C@@H](CO)C(=O)N[C@@H](Cc1c[nH]c2ccccc12)C(=O)N[C@H](C(=O)N[C@@H](CCCCN)C(=O)N[C@@H](CCCNC(=N)N)C(=O)N[C@@H](CCCCN)C(=O)N[C@@H](CCCNC(=N)N)C(=O)N[C@@H](CCC(N)=O)C(=O)N[C@@H](CCC(N)=O)C(N)=O)[C@@H](C)CC)[C@@H](C)CC)[C@@H](C)O)[C@@H](C)O)C(C)C)C(C)C [melittin, Melittin]",logD at 10 min,[2],-0.46
